What was measured:
[1] = test system: Trypanosoma brucei brucei bloodstream form (strain 427); assay: Antitrypanosomal assay (LILIT, Alamar Blue, 72 h) on bloodstream forms; format: cell-based; conditions: for ED50, growth of Trypanosoma brucei (strain 427): bloodstream form, 72 h incubation, Alamar Blue
Experimental: (§1) Trypanosoma brucei brucei (strain 427) bloodstream forms were cultured in HMI-9 medium containing 10% heat-inactivated. The mammalian fibroblast cell line MRC-5 was grown in DMEM (Gibco) supplemented with 10% heat-inactivated FBS and extra glutamine. Cells were grown at 37 °C in humidified incubators in an atmosphere of 5% CO2 [13].
(§2) The assay performed, the long incubation low inoculation test (LITIT), was previously described by Räz et al., 1997 [14] with minor modifications by Baltz et al., 1985 [15]. To evaluate the selectivity of the in vitro antitrypanosomal activity, in vitro cytotoxicity tests were also performed. The same general method was used in order to facilitate the comparison.
(§3) The compounds were initially dissolved in DMSO at a concentration of 20 mg/ml and diluted with the medium. Series of dilution were done in 96-well plates; each dilution was tested in duplicate. Cells in suspension were thereafter added to each well at a density such as, after 72 h of incubation, in control wells the culture reached the end of logarithmic growth phase (T. brucei), or adhesive cells have formed a confluent monocellular film (mammal cells MRC-5). The highest concentration of DMSO was 0.5%. After 72 h of incubation, Alamar Blue, a marker of cell viability, was added in each well and fluorescence was quantified after a total incubation time of 76 h at an excitation wavelength of 530 nm and at an emission wavelength of 590 nm. ED50 values were calculated by linear interpolation. Assays with commercial drugs were also carried out in order to have reference values. All results represent average values obtained in at least three independent experiments, each experiment comprising a duplicate set of tests.

[2] = test system: MRC-5 mammalian cells (fibroblasts); assay: Cytotoxicity assay (Alamar Blue, 72 h) on mammalian fibroblasts; format: cell-based; conditions: 72 h incubation
Experimental: as §1, §2, §3

PGI of T. brucei = PGI of T. brucei (Trypanosoma brucei brucei, UniProt P13377); assay: Enzymatic inhibition of glycolytic enzyme PGI (T. brucei); format: biochemical; conditions: for Ki’ PGI of T. brucei: binding to enzyme-substrate (F6P/PGI) complex
GAPDH of T. brucei = GAPDH of T. brucei (Trypanosoma brucei brucei, UniProt P22512); assay: Enzymatic inhibition of GAPDH (T. brucei); format: biochemical
[3] = target: PyK of Leishmania mexicana (Leishmania mexicana, UniProt Q27686); assay: Enzymatic inhibition of PyK (L. mexicana); format: biochemical
[4] = target: rabbit muscle pyruvate kinase (PyK) (Oryctolagus cuniculus, UniProt P11974); assay: Enzymatic inhibition of PyK (rabbit muscle); format: biochemical
PGI Rabbit muscle = target: T1, PGI Rabbit muscle (Oryctolagus cuniculus, UniProt Q9N1E2); assay: Enzymatic inhibition of PGI (rabbit muscle); format: biochemical; conditions: n.i. = no inhibition observed at 50 μM
T1 construct: Rabbit muscle; from tissue; host or cells: rabbit muscle
Source text: Tab. 3. Enzymatic inhibition (IC50, μM) | column: PGI / Rabbit muscle

GAPDH Rabbit muscle = target: T2, GAPDH Rabbit muscle (Oryctolagus cuniculus, UniProt P46406); assay: Enzymatic inhibition of GAPDH (rabbit muscle); format: biochemical; conditions: n.i. = no inhibition observed at 50 μM
T2 construct: Rabbit muscle; from tissue; host or cells: rabbit muscle
Source text: Tab. 3. Enzymatic inhibition (IC50, μM) | column: GAPDH / Rabbit muscle

[5] = test system: Trypanosoma brucei brucei bloodstream form (strain 427); set-up: method as in PMID 17637068; conditions: cited from earlier work
[6] = test system: MRC-5 mammalian cells (fibroblasts); set-up: method as in PMID 17637068; conditions: cited from earlier work
[7] = n.i. = no inhibition observed at 50 μM

Chain of PGI of T. brucei (P13377 whole entry): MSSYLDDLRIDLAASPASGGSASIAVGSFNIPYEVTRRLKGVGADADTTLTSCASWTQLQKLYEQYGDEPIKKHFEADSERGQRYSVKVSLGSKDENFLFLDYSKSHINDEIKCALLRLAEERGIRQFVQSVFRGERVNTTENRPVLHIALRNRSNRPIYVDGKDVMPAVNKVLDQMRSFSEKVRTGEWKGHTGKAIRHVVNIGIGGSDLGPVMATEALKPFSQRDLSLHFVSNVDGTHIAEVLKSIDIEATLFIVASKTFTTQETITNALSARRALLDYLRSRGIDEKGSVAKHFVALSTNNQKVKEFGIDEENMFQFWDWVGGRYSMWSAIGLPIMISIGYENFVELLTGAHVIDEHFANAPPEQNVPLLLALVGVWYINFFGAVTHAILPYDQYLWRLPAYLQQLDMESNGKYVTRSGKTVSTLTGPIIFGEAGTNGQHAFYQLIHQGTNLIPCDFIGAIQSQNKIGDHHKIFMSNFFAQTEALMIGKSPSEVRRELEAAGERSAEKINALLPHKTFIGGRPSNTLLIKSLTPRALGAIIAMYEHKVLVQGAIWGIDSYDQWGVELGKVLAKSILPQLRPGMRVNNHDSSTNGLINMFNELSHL
Chain of PyK of Leishmania mexicana (Q27686 whole entry): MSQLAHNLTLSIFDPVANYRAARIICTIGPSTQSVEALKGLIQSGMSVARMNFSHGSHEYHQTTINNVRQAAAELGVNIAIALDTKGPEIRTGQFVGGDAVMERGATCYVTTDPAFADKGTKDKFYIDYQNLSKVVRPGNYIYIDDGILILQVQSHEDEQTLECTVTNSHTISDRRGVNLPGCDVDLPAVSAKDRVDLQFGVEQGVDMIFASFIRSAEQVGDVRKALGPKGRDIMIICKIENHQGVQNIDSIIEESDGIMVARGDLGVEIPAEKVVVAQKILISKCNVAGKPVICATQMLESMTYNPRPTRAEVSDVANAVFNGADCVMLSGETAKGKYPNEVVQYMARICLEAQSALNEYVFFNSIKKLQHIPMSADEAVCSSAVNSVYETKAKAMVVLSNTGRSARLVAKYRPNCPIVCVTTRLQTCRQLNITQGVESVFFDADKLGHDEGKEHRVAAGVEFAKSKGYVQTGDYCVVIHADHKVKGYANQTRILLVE
Chain of rabbit muscle pyruvate kinase (PyK) (P11974 whole entry): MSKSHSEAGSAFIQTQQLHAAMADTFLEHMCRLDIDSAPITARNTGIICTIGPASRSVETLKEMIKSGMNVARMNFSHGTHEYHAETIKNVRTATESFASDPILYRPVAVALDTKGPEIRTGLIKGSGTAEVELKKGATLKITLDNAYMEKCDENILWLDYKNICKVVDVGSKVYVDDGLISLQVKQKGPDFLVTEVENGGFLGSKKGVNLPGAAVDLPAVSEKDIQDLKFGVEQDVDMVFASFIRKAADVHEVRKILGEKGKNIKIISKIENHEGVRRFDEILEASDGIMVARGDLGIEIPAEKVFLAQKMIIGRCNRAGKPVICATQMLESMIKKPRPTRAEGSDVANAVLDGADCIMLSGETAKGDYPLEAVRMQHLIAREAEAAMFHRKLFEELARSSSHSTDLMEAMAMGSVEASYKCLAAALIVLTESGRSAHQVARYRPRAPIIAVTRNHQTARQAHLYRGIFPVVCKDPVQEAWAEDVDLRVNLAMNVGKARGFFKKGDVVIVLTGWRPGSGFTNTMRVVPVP
Chain of GAPDH of T. brucei (P22512 whole entry): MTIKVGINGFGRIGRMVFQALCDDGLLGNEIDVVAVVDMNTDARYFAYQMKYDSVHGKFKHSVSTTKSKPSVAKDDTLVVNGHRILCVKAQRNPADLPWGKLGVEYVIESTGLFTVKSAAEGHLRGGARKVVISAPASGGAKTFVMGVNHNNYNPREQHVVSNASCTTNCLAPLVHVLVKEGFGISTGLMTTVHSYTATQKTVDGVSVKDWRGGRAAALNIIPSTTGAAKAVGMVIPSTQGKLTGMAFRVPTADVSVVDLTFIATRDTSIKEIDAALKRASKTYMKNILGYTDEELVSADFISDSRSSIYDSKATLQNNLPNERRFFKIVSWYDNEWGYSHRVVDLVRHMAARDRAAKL
T2 sequence (P46406 whole entry): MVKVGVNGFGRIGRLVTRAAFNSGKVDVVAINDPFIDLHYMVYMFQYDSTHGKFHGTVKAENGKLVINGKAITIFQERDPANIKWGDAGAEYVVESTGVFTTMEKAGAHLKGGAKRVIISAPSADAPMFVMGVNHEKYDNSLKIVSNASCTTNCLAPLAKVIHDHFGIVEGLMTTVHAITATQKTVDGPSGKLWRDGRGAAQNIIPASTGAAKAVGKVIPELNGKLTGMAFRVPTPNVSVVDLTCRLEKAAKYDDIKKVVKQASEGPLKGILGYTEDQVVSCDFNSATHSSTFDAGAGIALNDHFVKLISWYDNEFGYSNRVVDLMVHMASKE

## C=C(C)[C@@H](CC)CC(O)[C@@H](C)[C@H]1CC[C@H]2[C@@H]3CC=C4C[C@@H](O)CC[C@]4(C)[C@H]3CC[C@]12C (stereo partly drawn) [Compound 1, (3β,24S)-Stigmasta-5,25-diene-3,22-diol]
[1]
  ED50, growth of Trypanosoma brucei (strain 427): 1.56 µM
[1]; ratio of ED50 values
  fold more potent than compound 2 (ED50, T. brucei brucei growth): 86 fold
[2]
  ED50, Mammalian cells (MRC-5 fibroblasts): 1.12 µM
PGI of T. brucei
  IC50: 30 ± 10 µM
PGI of T. brucei; kinetic studies
  affinity for F6P/PGI complex relative to affinity of natural substrate (F6P) for PGI: 76 fold
  type of inhibition of PGI of T. brucei: uncompetitive inhibitor
  Ki’ PGI of T. brucei: 3 ± 1 µM
GAPDH of T. brucei
  IC50: 30 ± 10 µM
[3]
  IC50: 30 ± 5 µM
  Ki: 24 ± 5 µM
[3]; kinetic studies
  Ki’ PyK of Leishmania mexicana: 65 ± 10 µM
  type of inhibition of PyK of Leishmania mexicana: mixed inhibitor
[4]; kinetic studies
  Ki’ PyK of rabbit muscle: 26 ± 3 µM
  type of inhibition of PyK of rabbit muscle: uncompetitive inhibitor
other
  melting point: 166 to 168 °C

## C=C(C)[C@@H](CC)CC[C@@H](C)[C@H]1CC[C@H]2[C@@H]3CC=C4C[C@@H](O)CC[C@]4(C)[C@H]3CC[C@]12C [Compound 2, (3β,24S)-Stigmasta-5,25-dien-3-ol]
[1]
  ED50, growth of Trypanosoma brucei (strain 427): 134.34 µM
[2]
  ED50, Mammalian cells (MRC-5 fibroblasts): no effect
[2]; listed as compound 2
  ED50, Mammalian cells (MRC-5 fibroblasts): non toxic on mammalian cells
PGI of T. brucei
  IC50: 45 ± 10 µM
  Ki: 10 ± 2 µM
PGI of T. brucei; kinetic studies
  type of inhibition of PGI of T. brucei: mixed inhibitor
  Ki’ PGI of T. brucei: 68 ± 5 µM
PGI Rabbit muscle
  IC50 PGI Rabbit muscle: n.i.
GAPDH of T. brucei; [7]
  IC50 GAPDH T. brucei: n.i.
GAPDH Rabbit muscle
  IC50 GAPDH Rabbit muscle: n.i.
[3]; [7]
  IC50 PyK L. mexicana: n.i.
[4]; [7]
  IC50 PyK Rabbit muscle: n.i.
[5]
  antitrypanosomal activity (known): weak antitrypanosomal activity
[6]
  toxicity to mammalian cells (known): non toxic to mammalian cells

Reference: publication PMC3097502, “Antitrypanosomal and Cytotoxic Activities of 22-Hydroxyclerosterol, a New Sterol from Allexis cauliflora (Violaceae)” (Scientia Pharmaceutica, 2011)
